Some test systems named below: K-562 leukemia; LOX IMVI melanoma; MOLT-4 leukemia; NCI-H23 lung; NCI-H460 lung; NCI-H522 lung; OVCAR-3 ovarian; OVCAR-4 ovarian; RPMI-8226 leukemia; SF-268 CNS; SF-295 CNS; SK-MEL-28 melanoma; SK-OV-3 ovarian; SNB-19 CNS; SNB-75 CNS; UACC-257 melanoma; UACC-62 melanoma; UO-31 renal.
What all share (assay): NCI tumour cell line growth inhibition, 48 h

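Compound exposure: 48 hours, 5 concentrations, 96-well plates. GI50 is the concentration that inhibits growth by half. At the TGI there is no net growth.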 Where only a bound is given, the exact number is not on record here.

As to `COc1ccc2[nH]c(=O)cc(C)c2c1[N+](=O)[O-]`, the TGI with K-562 leukemia, in the assay with LOX IMVI melanoma, in the assay on MOLT-4 leukemia, in the assay with NCI-H23 lung, in the assay on NCI-H460 lung and with NCI-H522 lung was > 100 µM throughout. Further, the TGI in the assay on OVCAR-3 ovarian, with OVCAR-4 ovarian, in the assay on RPMI-8226 leukemia, in the assay on SF-268 CNS, with SF-295 CNS and with SK-MEL-28 melanoma was > 100 µM each time. The TGI with SK-OV-3 ovarian was > 100 µM; with SNB-19 CNS, > 100 µM; in the assay with SNB-75 CNS, 55.7 µM; with UACC-257 melanoma it was > 100 µM; in the assay with UACC-62 melanoma it was > 100 µM; in the assay on UO-31 renal it was > 100 µM.
For the compound `COc1ccc(C(=O)c2[nH]c(Nc3cc(C)ccn3)c(C(=S)Nc3ccccc3)c2N)cc1`, the TGI is > 100 µM in the assay on K-562 leukemia; 42.2 µM in the assay on LOX IMVI melanoma; > 100 µM with MOLT-4 leukemia; 72.6 µM in the assay on NCI-H23 lung; 31.5 µM with NCI-H460 lung; 29.9 µM in the assay with NCI-H522 lung. The TGI in the assay on OVCAR-3 ovarian was > 100 µM; in the assay with OVCAR-4 ovarian it was 36.5 µM; with RPMI-8226 leukemia, 37.3 µM; with SF-268 CNS, 68.2 µM; in the assay with SF-295 CNS, 49.5 µM; in the assay with SK-MEL-28 melanoma, 34 µM. Besides, the TGI with SK-OV-3 ovarian was found to be 47 µM; in the assay on SNB-19 CNS it was 56 µM; with SNB-75 CNS, 50.9 µM; in the assay on UACC-257 melanoma, 32.7 µM; with UACC-62 melanoma, 26.7 µM; in the assay with UO-31 renal, 57.4 µM.
On to `Nc1nc(N)c2ncn(Cc3ccccc3CO)c2n1`, for which the TGI in the assay with K-562 leukemia, with LOX IMVI melanoma, in the assay with MOLT-4 leukemia, in the assay with NCI-H23 lung, in the assay with NCI-H460 lung and in the assay on NCI-H522 lung was > 100 µM each time. Also, the TGI in the assay with OVCAR-3 ovarian, with OVCAR-4 ovarian, in the assay with RPMI-8226 leukemia, with SF-268 CNS, with SF-295 CNS and in the assay on SK-MEL-28 melanoma was > 100 µM throughout. Besides, the TGI in the assay with SK-OV-3 ovarian, with SNB-19 CNS, in the assay with SNB-75 CNS, in the assay on UACC-257 melanoma, with UACC-62 melanoma and with UO-31 renal was > 100 µM in each case.
Take `COc1cc2c(/C=C3/C(=O)Nc4cc(C)c(O)cc43)c(Cl)[nH]c2cc1C`: the TGI was determined as 3.9 µM in the assay with K-562 leukemia; 35.5 µM with LOX IMVI melanoma; 0.835 µM with MOLT-4 leukemia; 5.87 µM with NCI-H23 lung; 8.89 µM in the assay on NCI-H460 lung; 11.1 µM in the assay with NCI-H522 lung. Further, the TGI with OVCAR-3 ovarian is 3.68 µM; in the assay on OVCAR-4 ovarian it was 24.1 µM; in the assay with RPMI-8226 leukemia it was 4.44 µM; in the assay on SF-268 CNS it was 31.9 µM; with SF-295 CNS it was 5.07 µM; in the assay with SK-MEL-28 melanoma it was 18.9 µM. The TGI in the assay on SK-OV-3 ovarian stood at 8.32 µM; in the assay on SNB-19 CNS, 14.8 µM; in the assay on SNB-75 CNS, 7.6 µM; in the assay on UACC-257 melanoma it was 19.6 µM; in the assay with UACC-62 melanoma it was 8.77 µM; in the assay on UO-31 renal it was 17.7 µM.
For `O=C1Nc2ccccc2C1(O)Cc1ccccn1` (stereo not given), the TGI with K-562 leukemia, in the assay with LOX IMVI melanoma, with NCI-H23 lung, with NCI-H460 lung, in the assay on NCI-H522 lung and in the assay on OVCAR-3 ovarian was > 100 µM throughout. Also, the TGI in the assay on OVCAR-4 ovarian, in the assay on RPMI-8226 leukemia, in the assay on SF-268 CNS, in the assay with SF-295 CNS, in the assay on SK-MEL-28 melanoma and in the assay on SK-OV-3 ovarian was > 100 µM in each case. In addition, the TGI in the assay with SNB-19 CNS, in the assay on SNB-75 CNS, with UACC-257 melanoma, in the assay on UACC-62 melanoma and with UO-31 renal was > 100 µM throughout.
For `COc1cnc2oc3ccc(O)cc3c2c1-c1ccccc1`, the TGI in the assay on K-562 leukemia, in the assay on LOX IMVI melanoma, with MOLT-4 leukemia, with NCI-H23 lung, in the assay on NCI-H460 lung and with NCI-H522 lung was > 100 µM in each case. Further, the TGI in the assay on OVCAR-3 ovarian, in the assay with OVCAR-4 ovarian, in the assay on RPMI-8226 leukemia, in the assay on SF-268 CNS, in the assay with SF-295 CNS and in the assay with SK-MEL-28 melanoma was > 100 µM in each case. In addition, the TGI in the assay with SK-OV-3 ovarian, in the assay on SNB-75 CNS, in the assay with UACC-257 melanoma and with UO-31 renal was > 100 µM throughout.
Take `O=C(N/N=C/c1cc(Cl)cc(Cl)c1[O-])c1ccccc1O.O=C(N/N=C/c1cc(Cl)cc(Cl)c1[O-])c1ccccc1O.[Mn+2]`: the TGI stood at 17.2 µM with K-562 leukemia; 14.1 µM in the assay with LOX IMVI melanoma; 14.8 µM in the assay on MOLT-4 leukemia; 6.31 µM in the assay with NCI-H23 lung; 0.737 µM in the assay with NCI-H522 lung; 1.02 µM with OVCAR-3 ovarian. For the same compound, the TGI came out at 1.58 µM with OVCAR-4 ovarian; 11.5 µM in the assay with SF-268 CNS; 11.8 µM in the assay on SF-295 CNS; 12.1 µM with SK-MEL-28 melanoma; 3.58 µM with SK-OV-3 ovarian; 16.1 µM in the assay on SNB-19 CNS. Moreover, the TGI with SNB-75 CNS was determined as 22.9 µM; in the assay on UACC-257 melanoma it was 11.9 µM; in the assay on UACC-62 melanoma, 0.804 µM; with UO-31 renal, 11.1 µM. Further, the GI50 in the assay with MOLT-4 leukemia was 0.289 µM; in the assay with NCI-H23 lung it was 0.301 µM.
`O=C(c1ccsc1)c1nccc2c1cnc1ccccc12`: the TGI in the assay on LOX IMVI melanoma was > 100 µM; with MOLT-4 leukemia, 24.3 µM; with NCI-H23 lung it was > 100 µM; with NCI-H460 lung, > 100 µM; with NCI-H522 lung it was 62 µM; in the assay on OVCAR-3 ovarian, > 100 µM. The TGI in the assay on OVCAR-4 ovarian, in the assay on RPMI-8226 leukemia, in the assay with SF-268 CNS, with SF-295 CNS, in the assay with SK-MEL-28 melanoma and in the assay on SK-OV-3 ovarian was > 100 µM throughout. For the same compound, the TGI is > 100 µM in the assay on SNB-19 CNS; 88.2 µM in the assay on SNB-75 CNS; > 100 µM in the assay on UACC-257 melanoma; > 100 µM in the assay with UACC-62 melanoma; > 100 µM in the assay with UO-31 renal.

The record behind these values is PubChem BioAssay (NCI).
